Data as given in US20250052985A1, “SYSTEM AND METHOD FOR QUANTITATIVE PHASE IMAGING FOR MULTI-PARAMETRIC SCREENING OF TUMOR THERAPY RESPONSE” (UNIVERSITY OF UTAH RESEARCH FOUNDATION, priority 2023, published 2025).
“And” between values parts separate entries of the source, which are not always exact repeats. Equal entries are not always repeated. Where two headings read alike, the source gives them in different places.

Columns and labels:
MCF-7 cells [1] = test: cells; conditions: for Max Asymptote / Min Asymptote: MCF-7, 4-parameter Hill fit of mean SGR vs concentration, one line per replicate; for Hill Slope: MCF-7, Hill fit
Summary of the method: (§1)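 Breast cancer lines imaged noninvasively by DPC-based quantitative phase imaging across 6-point dose responses in triplicate with solvent controls, for 24 h or 72 h after 3 h equilibration, then CellTiter-Glo ATP viability. Mean specific growth rate fitted to a 4-parameter Hill curve for EC50, with an F-test (p<0.01) against a flat line to determine response.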

MDA-MB-231 cells [2] = test: Quantitative phase imaging (QPI) growth response, MDA-MB-231; type: cell-based; set-up: DoR QPI: scale not given here; ToR 20 μM: unit not given here; conditions: for Max Asymptote / Min Asymptote: MDA-MB-231, 4-parameter Hill fit of mean SGR vs concentration, one line per replicate
Summary of the method: as §1

BT-474 cells = test: CellTiter-Glo (CTG) ATP viability assay, BT-474; type: cell-based; conditions: for Min Asymptote: BT-474, Hill fit of luminescence normalized to solvent control, one line per replicate; for EC50: Homo sapiens, read-out: log10(EC50) (converted)
Summary of the method: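 Cell viability was read as ATP content by CellTiter-Glo luminescence after replacing media with reagent, shaking 20 min and resting 10 min. Signal was normalized to solvent control, and a 4-parameter Hill fit to the dose response gave EC50 and depth of response.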

MCF-7 cells [3] = test: CellTiter-Glo (CTG) ATP viability assay, MCF-7; type: cell-based; conditions: for EC50: Homo sapiens
Protocol: (§2) CTG (e.g., read by the CTG reader 115) is a cell viability assay that quantifies the amount of ATP present at the end of an experiment as an indicator of the number of live cells. The electronic controller 155 measures ATP content in each condition as a readout by a luminescent signal, which is normalized by the luminescence of the control (e.g., a control well) to determine cell viability relative to on-plate controls. In some embodiments, the CTG assay is performed by first removing 100 μL of media from each well on the well-plate 105, which is then replaced with an equal amount of CellTiter-Glo reagent (e.g., Promega, G7572). Assayed plates may be shaken at 500 RPM for 20 minutes and allowed to rest for 10 minutes. In some instances, 100 μL of volume from each well is transferred to a white 96-well plate (e.g., Perkin Elmer, 6005680). The electronic controller 155 collects luminescence data from each well using an Envision plate reader (e.g., Perkin Elmer) and normalized against the solvent control to measure ATP content. The electronic controller 155 fits a 4-parameter hill curve to the dose response to determine the EC50 and depth of response.

MDA-MB-231 cells [4] = test: CellTiter-Glo (CTG) ATP viability assay, MDA-MB-231; type: cell-based; conditions: for Min Asymptote: MDA-MB-231, Hill fit of luminescence normalized to solvent control, one line per replicate; for EC50: Homo sapiens, read-out: log10(EC50) (converted)
Protocol: as §2

CC(=O)O[C@@]12CO[C@@H]1C[C@H](O)[C@@]1(C)C(=O)[C@H](O)C3=C(C)[C@@H](OC(=O)[C@H](O)[C@@H](NC(=O)OC(C)(C)C)c4ccccc4)C[C@@](O)([C@@H](OC(=O)c4ccccc4)[C@H]21)C3(C)C [Docetaxel]
Max Asymptote (MCF-7 cells [1]; 24 h QPI): 0.02457 and 0.02891 and 0.02213 | Min Asymptote (MCF-7 cells [1]; 24 h QPI): 0.01057 and 0.01168 and 0.008144 | Hill Slope (MCF-7 cells [1]; 24 h QPI): 1.6196 and 1.4393 and 1.4829 | Max Asymptote (MCF-7 cells [1]; 72 h QPI): 0.00408 and 0.005816 and 0.004488 | Min Asymptote (MCF-7 cells [1]; 72 h QPI): 0.021 and 0.02567 and 0.0188 | Hill Slope (MCF-7 cells [1]; 72 h QPI): 1.6038 and 0.9248 and 1.3228 | EC50 (MCF-7 cells [1]; Homo sapiens, MCF7, read-out: EC50, QPI, MCF-7 cell line, QPI growth rate): 0.912 nM | DoR QPI (MCF-7 cells [1]; MCF-7 cell line, depth of response, QPI): 0.8 | ToR 20 μM (MCF-7 cells [1]; MCF-7 cell line, time of response at 20 μM): 5.9 | Max Asymptote (MDA-MB-231 cells [2]; 24 h QPI): 0.03347 and 0.03066 and 0.02364 | Min Asymptote (MDA-MB-231 cells [2]; 24 h QPI): 0.01673 and 0.01578 and 0.02364 | Max Asymptote (MDA-MB-231 cells [2]; 72 h QPI): 0.01382 and 0.01017 and 0.02742 | Min Asymptote (MDA-MB-231 cells [2]; 72 h QPI): 0.04028 and 0.02962 and 0.02742 | EC50 (MDA-MB-231 cells [2]; Homo sapiens, MDA-MB-231, MDA-MB-231 cell line, EC50 of the standard deviation, read-out: EC50, SD (converted)): 1.11 nM | growth rate and heterogeneity over time (MDA-MB-231 cells [2]; MDA-MB-231): decrease in growth rate and heterogeneity simultaneously | growth rate and heterogeneity over time (MDA-MB-231 cells [2]; MDA-MB-231, 0.4 μM): decrease in growth rate and heterogeneity simultaneously | growth rate and heterogeneity over time (MDA-MB-231 cells [2]; MDA-MB-231, 2 μM): decrease in growth rate and heterogeneity simultaneously | SGR distribution over 72 h (MDA-MB-231 cells [2]; MDA-MB-231, 20 μM): distinctive long tail of non-responders that persists at 72 h | growth rate and heterogeneity over time (MDA-MB-231 cells [2]; MDA-MB-231, 20 μM): decrease in growth rate and heterogeneity simultaneously | growth rate and heterogeneity over time (MDA-MB-231 cells [2]; MDA-MB-231, lowest concentrations, FIG. 21 G-H): growth rate decreases over time with little change in heterogeneity | DoR QPI (MDA-MB-231 cells [2]; MDA-MB-231 cell line, depth of response, QPI): 0.7 | ToR 20 μM (MDA-MB-231 cells [2]; MDA-MB-231 cell line, time of response at 20 μM): 3.5 | Hill Slope (BT-474 cells; 24 h CTG, BT-474, Hill fit): 7.175 | Min Asymptote (BT-474 cells; 24 h CTG): 0.8491 | Hill Slope (BT-474 cells; 72 h CTG, BT-474, Hill fit): 7.938 and 5.667 | log10(EC50) (BT-474 cells; 72 h CTG, BT-474, Hill fit): 2.403 | Min Asymptote (BT-474 cells; 72 h CTG): 0.2805 and 0.3348 | DoR CTG (BT-474 cells; BT-474 cell line, depth of response, CellTiter-Glo): 0.6 | EC50 (BT-474 cells; BT-474, 24 h, 24 h CTG, BT-474, Hill fit): 13.7 nM | EC50 (BT-474 cells; BT-474, 72 h, 72 h CTG, BT-474, Hill fit): 3.34 nM | Hill Slope (MCF-7 cells [3]; 72 h CTG, MCF-7, Hill fit): 5.079 and 4.965 | log10(EC50) (MCF-7 cells [3]; 72 h CTG, MCF-7, Hill fit): 3.291 | Min Asymptote (MCF-7 cells [3]; 72 h CTG, MCF-7, Hill fit of luminescence normalized to solvent control, one line per replicate): 0.368 (2×) and 0.4065 | EC50 (MCF-7 cells [3]; MCF7, 72 h, 72 h CTG, MCF-7, Hill fit, read-out: log10(EC50) (converted)): 0.455 nM | EC50 (MCF-7 cells [3]; MCF7, MCF-7 cell line, CellTiter-Glo, read-out: EC50, CTG (converted)): 0.501 nM | DoR CTG (MCF-7 cells [3]; MCF-7 cell line, depth of response, CellTiter-Glo): 0.6 | Hill Slope (MDA-MB-231 cells [4]; 24 h CTG, MDA-MB-231, Hill fit): 7.175 | Min Asymptote (MDA-MB-231 cells [4]; 24 h CTG): 0.8491 | log10(EC50) (MDA-MB-231 cells [4]; 72 h CTG, MDA-MB-231, Hill fit): 2.342 | Min Asymptote (MDA-MB-231 cells [4]; 72 h CTG): 0.3348 and 0.2561 | EC50 (MDA-MB-231 cells [4]; MDA-MB-231, 24 h, 24 h CTG, MDA-MB-231, Hill fit): 13.7 nM | EC50 (MDA-MB-231 cells [4]; MDA-MB-231, 72 h, 72 h CTG, MDA-MB-231, Hill fit): 3.96 nM | DoR CTG (MDA-MB-231 cells [4]; MDA-MB-231 cell line, depth of response, CellTiter-Glo): 0.7
